Two compounds from patent US8927717B1, “Thiochromeno[2,3-c]quinolin-12-one derivatives, preparation method and application thereof” (National Defense Medical Center, priority 2014, dated 2015) can be followed below.

The test system of one assay is DU-145 cell line. Nature of the assay: MTT assay for cell cytotoxicity. The settings on record: read-out: MTT assay (IC50 ± SD) DU-145. It is filed as cell-based, human. The procedure: (§1) All of synthesis compounds were evaluated cell cytotoxicity by using MTT colorimetric assay on PC-3 and DU-145 cell lines. DU-145 and PC-3 are human hormone-refractory (androgen-independent) prostatic cancer cell lines from American Type Culture Collection (HTB-81™, ATCC, Rockville, Md.)^125 and Bioresource Collection and Research Center (60122, BCRC, Taiwan)^126, respectively. Two of the “classical” cell lines were cultivated in RPMI-1640 medium supplemented with 5% fetal bovine serum (v/v), 100 U/mL penicillin, and […] streptomycin. Approximately 2×10^3 cells were seeded into each well of a 96-well plate and incubated in 5% CO2 at 37° C. for 24 h. To evaluate the in vitro cytotoxicity, all the synthetic compounds were dissolved in DMSO, prepared immediately before the experiments and diluted into the complete medium before being added to each well of a 96-well plate. Each compound was then added to the culture medium for designated various concentrations (0.15, 0.5, 1.5, 5, 15 μM). After 72 h, an amount of 100 μL of MTT (1 mg/mL) was added to each well, and the samples were incubated at 37° C. for 4 h. After removing the MTT solution, 100 μL of DMSO was added to each well and incubated at 37° C. for another 20 mins. The absorbency at 560 nm was measured by using an ELISA reader.
(§2) Results are expressed as mean values of at least three independent experiments. The IC50 values of testing compounds were described in Table 1.

The test system of a further assay is PC-3 cell line. Nature of the assay: MTT assay for cell cytotoxicity. It is filed as cell-based, human. The conditions noted are these: read-out: MTT assay (IC50 ± SD) PC-3. How it is done: as §1, §2

Where two headings read alike, the source gives them in different places.

In the case of `O=c1c2cc(Cl)ccc2sc2c(NCCO)nc3ccccc3c12` [Compound N9, 10-Chloro-6-(2-ethanolamino)-12H-thiochromeno[2,3-c]quinolin-12-one], the IC50 in the assay on DU-145 cell line (DU-145 cells, 72 h, at least three independent experiments) worked out at 11.6 ± 7.23 µM; in the assay on PC-3 cell line (PC-3 cells, 72 h, at least three independent experiments) it was 7.48 ± 3.35 µM.
As to `CC(C)CC(C)Nc1nc2ccccc2c2c(=O)c3cc(Cl)ccc3sc12` (stereo not shown) [Compound N13, 10-Chloro-6-((4-methylpentan-2-yl)amino)-12H-thiochromeno[2,3-c]quinolin-12-one], the concentration for half-maximal inhibition (IC50) in the assay on DU-145 cell line (Homo sapiens, DU-145, 72 h) stood at 14.2 ± 1.18 µM; in the assay with PC-3 cell line (Homo sapiens, PC-3, 72 h) it was 10.4 ± 2.3 µM.
